Experimental data taken from patent publication US12144856B2 (priority 2019, dated 2024).

Tests used:
[1] = tested on: 2009 pandemic influenza A(H1N1) virus and avian influenza virus A(H7N9); settings: cited from earlier work
influenza vaccine [2] = settings: young adults; topical imiquimod vs sham aqueous cream; cited from earlier work
influenza vaccine [3] = settings: older adults, cited from earlier work
[4] = tested on: split-virion seasonal influenza vaccine; test: Antibody titers after influenza vaccination with or without intraperitoneal miltefosine (FIG. 1); type: in vivo, mice
Excerpt: FIG. 1: FIG. 1 depicts antibody titers measured 14 days after vaccination with or without miltefosine. A second dose of vaccine was provided on day 14. Circles indicate data from the miltefosine+vaccine treatment group; squares indicate data from the vaccine only treatment group; triangles indicate data from the miltefosine only treatment group; inverted triangles indicate data from a saline-treated control group.
Miltefosine is an FDA-approved anti-parasitic drug that is used in the treatment of Leishmaniasis. The immunomodulating effects of miltefosine include being an agonist of TLR4 and TLR9 (Das S, Rani M, Pandey K, Sahoo G C, Rabidas V N, Singh D, et al. Combination of paromomycin and miltefosine promotes TLR4-dependent induction of antileishmanial immune response in vitro. J Antimicrob Chemother 2012; 67:2373-8; Mukherjee A K, Gupta G, Adhikari A, Majumder S, Kar Mahapatra S, Bhattacharyya Majumdar S, et al. Miltefosine triggers a strong proinflammatory cytokine response during visceral leishmaniasis: role of TLR4 and TLR9. Int Immunopharmacol 2012; 12:565-72), enhancing IFN-γ receptor (Wadhone P, Maiti M, Agarwal R, Kamat V, Martin S, Saha B. Miltefosine promotes IFN-gamma-dominated anti-leishmanial immune response. J Immunol 2009; 182:7146-54), promoting IL12-dependent TH1 response (Wadhone P, Maiti M, Agarwal R, Kamat V, Martin S, Saha B. Miltefosine promotes IFN-gamma-dominated anti-leishmanial immune response. J Immunol 2009; 182:7146-54), and inhibiting PI3K-Akt pathway (Lucas A, Kim Y, Rivera-Pabon O, Chae S, Kim D H, Kim B. Targeting the PI3K/Akt cell survival pathway to induce cell death of HIV-1 infected macrophages with alkylphospholipid compounds. PLoS One 2010; 5). Topical formulation of miltefosine has been evaluated in the treatment of breast carcinoma (Clive S, Gardiner J, Leonard R C. Miltefosine as a topical treatment for cutaneous metastases in breast carcinoma. Cancer Chemother Pharmacol 1999; 44 Suppl:S29-30). […] It was also noted that both IgG1 and IgG2a responses were enhanced by the use of miltefosine in combination with intradermal vaccination.

influenza infection [5] = test: Post-infection antibody, hemagglutination and microneutralization titers of mice vaccinated with or without miltefosine (FIG. 3); type: in vivo; settings: intraperitoneal miltefosine + vaccine vs vaccine only
Excerpt: Circles indicate data from the miltefosine+vaccine treatment group; squares indicate data from the vaccine only treatment group; triangles indicate data from the miltefosine only treatment group; inverted triangles indicate data from a saline-treated control group.
In FIG. 3 circles indicate data from the miltefosine+vaccine treatment group, squares indicate data from the vaccine only treatment group, triangles indicate data from the miltefosine only treatment group, and inverted triangles indicate data from a saline-treated control group.

influenza infection [6] = test: Survival of mice infected 3 or 7 days after a single influenza vaccination with or without miltefosine (FIGS. 2A, 2B); type: in vivo; settings: intraperitoneal miltefosine adjuvant + vaccine vs vaccine without adjuvant; infected 3 or 7 days after vaccination
Experimental: FIGS. 2A and 2B: FIG. 2A depicts survival rates of infected mice that were vaccinated with or without miltefosine 3 days prior to infection. Data from treatment with 0.2 mg miltefosine+vaccine is represented by a combination a circle and a solid line. Data from treatment with 0.008 mg miltefosine+vaccine is represented by a combination of a rhombus and a dashed line. Data from treatment with 0.2 mg miltefosine only is represented by a dash/dot line. Data from treatment with vaccine only is represented by a combination of a square and a solid line. Data from treatment with a saline control is represented by a dotted line. FIG. 2B depicts survival rates of infected mice that were vaccinated with (circle/dashed line, rhombus/dashed line, or black) or without (square/solid line) miltefosine 7 days prior to infection. Data from treatment with 1 mg miltefosine+vaccine is represented by a combination a triangle and a solid line. Data from treatment with 0.2 mg miltefosine+vaccine is represented by a combination a circle and a solid line. Data from treatment with 0.008 mg miltefosine+vaccine is represented by a combination of a rhombus and a dashed line. Data from treatment with 0.2 mg miltefosine only is represented by a dash/dot line. Data from treatment with vaccine only is represented by a combination of a square and a solid line. […]

[7] = miltefosine + vaccine vs vaccine only, 14 days after vaccination

In the case of `CC(C)Cn1cnc2c(N)nc3ccccc3c21` [imiquimod], the “Death during lethal challenge” value ([1]; 2009 pandemic A(H1N1) and A(H7N9) lethal challenge) is given as “reduction”, the “Immunogenicity of the influenza vaccine” value ([1]; mouse model) is given as “accelerate and augment” and the “Antibody responses for homologous virus” value (influenza vaccine [2]) is given as “faster and more robust”. For the same compound, the Antibody response (influenza vaccine [3]; topical imiquimod vs sham aqueous cream before intradermal vaccine) was “more rapid and robust” and the “Rate of hospitalization and pneumonia” value (influenza vaccine [3]; topical imiquimod vs sham aqueous cream) was “significantly lower”.

For `CCCCCCCCCCCCCCCCOP(=O)([O-])OCC[N+](C)(C)C` [miltefosine], the Hemagglutination titer [4, 7] was “improved”, the Microneutralization titer [4, 7] was “improved” and the IgG titer ([4]; miltefosine in combination with influenza vaccination vs vaccine only, two weeks post-immunization) was “significantly increased”. The “IgG1 and IgG2a responses” value ([4]; miltefosine in combination with vaccination) was “enhanced”, the IgG1/IgG2 ratio (influenza infection [5]) was “greater” and the HAI titer (influenza infection [5]; 4 days post-infection) was “significantly higher”. For the same compound, the MN titer (influenza infection [5]; 4 days post-infection) was “significantly higher” and the Survival (influenza infection [6]) was “significantly improved”.

With `CCCCC/C=C\C/C=C\C/C=C\C/C=C\CCCC(=O)N[C@H](C)CO` [(R)-methanandamide] the CC50 (in vitro) was over 60 µM.
